Test results taken from patent publication US10039761B2, “Co-crystals and pharmaceutical compositions comprising the same” (Vertex Pharmaceuticals Incorporated, priority 2013, dated 2018).

Columns and labels:
[1] = system: Miapaca2 cells; test: Clonogenic survival of irradiated cancer cell lines; format: cell-based; conditions: with radiation; surviving fraction 0.1
Text: (§1) The clonogenic cell survival assay measures the ability of a cell to proliferate indefinitely, thereby retaining its self-renewing ability to form a colony (i.e., clone). This assay has been a mainstay in radiation oncology for decades and was used to determine the effect of Compound (1) on the clonogenicity of a panel of cell lines across multiple tumor types following radiation. […] A DEF greater than 1.5 is generally considered to be clinically meaningful; therefore, by these standards, Compound (1) would be characterized as a strong radio-enhancing agent.

[2] = system: FaDu cells; test: as above; format: cell-based
Text: as §1

[3] = Body weight in OD26749 xenograft studies; format: in vivo, nude mice
Experimental: (§2) The in vivo efficacies of Compounds (1) and (2) in combination with whole body IR were examined in the OD26749 primary NSCLC (non-small cell lung cancer) and the OE-19 GEJ cell line xenograft models. In these studies, Compounds (1) and (2) were formulated with 16% captisol/1% PVP/1% HPMC E5 pH2.
The in vivo efficacy of Compound (1) was evaluated in the primary OD26749 NSCLC subcutaneous xenograft model. […] Efficacy was evaluated using a regimen in which 2-Gy whole body IR was administered twice, one week apart. Compound (1) was administered PO (tid at 0, 3, and 7 h) at 100 mg/kg alone or with a single 2 Gy dose of whole body IR at 3.25 h. Seven days later, the same regimens were repeated. Compound (1) in combination with 2 Gy whole body IR induced significant tumor regression (% T/Ti of −75; P<0.01) compared to IR alone.
The efficacies of Compounds (1) and (2) in combination with whole body IR (2 Gy) were evaluated in the OD26749 primary NSCLC xenograft model at a Compound (1) dose level of 100 mg/kg PO bid (0 and 4 h) and Compound (2) dose levels of 50 mg/kg and 100 mg/kg PO bid (0 and 4 h). Two cycles of whole body IR (2 Gy) were given 15 min after the first compound administration (0.25 hour). Control animals were administered vehicle PO bid (0 and 4 h). Two cycles of treatment were performed on Day 0 and Day 7.

[4] = system: OE-19 GEJ cell line xenograft; test: OE-19 GEJ cell line xenograft efficacy with whole body IR; format: in vivo
Experimental: as §2
The OE-19 cell line xenograft model was used to evaluate the efficacy of Compounds (1) and (2) alone and in combination with IR. Two cycles of treatment were administered (Day 0 and Day 7) as performed in the OD26749 model above.
In Tables 14 and 15, for example, PO bid (0, 4 h) indicates Compound (2) is administered twice (bid) at time point 0 and then 4 hours after; IR (0.25 h) qdx3 indicates radiation is administered 15 minutes (0.25 h) after the administration of Compound (2) (0 h), and once a day for 3 days (qdx3); q7dx2 indicates once a week for two weeks; qod indicates every other day twice (e.g., Day 1 and Day 3); and paclitaxel q7dx3 (−0.25 h), carboplatin q7dx3 (−0.25 h) indicates administration of paclitaxel and carboplatin 15 minutes prior to the administration of Compound (2), followed by additional administration of Compound (2) after 4 hours after the first administration of Compound (2).

[5] = system: triple-negative breast cancer cell lines; test: Doxorubicin/epirubicin combination, all breast cancer lines tested; format: cell-based; conditions: doxorubicin and Compound (2)
Experimental: (§3) The cell-based experiments and assays were performed with either molecule but not always with both. Compounds (1) and (2) were generally very similar in those assays and experiments. Analysis of the combination experiments was performed using two methods: the Bliss Additivity model and the Mixtures Blend method to determine the degree of synergy, additivity, or antagonism. In the Bliss method, a matrix of Bliss scores was generated for each cell line and treatment, and a sum of the Bliss values over the range of combination concentrations tested was calculated. […] Larger average Bliss values indicate greater confidence in reporting synergy, and smaller scores indicate greater confidence in reporting antagonism. In the Mixtures Blend method combinants were added in a range of optimal ratios using design of experiment (DOE) software (DX-8 from STAT-EASE); the cells were irradiated with 2 Gy as required. Synergy was determined using statistical analysis of the data (ANOVA) to indicate linear (additivity) or statistically significant (p<0.1) non-linear (antagonism or synergy) mixes of the combinants.

[6] = system: A549; test: Combination with etoposide, viability (Bliss analysis); format: cell-based; conditions: Compound (2) with etoposide; n = 1
Experimental: as §3

[7] = system: ESO26; test: as above; format: cell-based; conditions: Compound (2) with etoposide; n = 3
Experimental: as §3

[8] = Body weight in ST-02-0004 xenograft studies; conditions: in vivo, po, 25 mg/kg
Experimental: The in vivo activities of Compounds (1) and (2) were compared in combination with focused beam IR in a primary gastric cancer subcutaneous xenograft model. In the ST 02 0004 model, focused IR was administered on three consecutive days alone and in combination with Compound (1) or Compound (2). […] For all experimental groups, treatment was generally well tolerated as evidenced by maximum body weight losses ranging from −8.06% to −10.0% 10 to 48 days after treatment initiation
The anti-tumor activity of Compound (2) in combination with focused-beam IR and the standard of care agents, paclitaxel and carboplatin, was also evaluated in the ST 02 0004 model. Treatment with paclitaxel, carboplatin, and IR was administered once per week for three weeks alone or in combination with Compound (2). […] Further, the 50 and 25 mg/kg Compound (2), paclitaxel/carboplatin, IR combination groups were statistically different (P<0.05) from the paclitaxel/carboplatin, paclitaxel/carboplatin/50 mg/kg Compound (2), and paclitaxel/carboplatin/IR groups. Compound (2) blood exposures were 9.3 and 27 μg*h/mL for the 25 and 50 mg/kg Compound (2) bid groups, respectively.

[9] = system: HCC-1937; test: Doxorubicin combination in triple negative breast cancer cells; format: cell-based; conditions: Compound (2) with doxorubicin, BRCA mutant
Experimental: as §3

[10] = system: MDA-MB-468; test: as above; format: cell-based; conditions: Compound (2) with doxorubicin, BRCA wild-type
Experimental: as §3

[11] = system: HCC-1395; test: as above; format: cell-based; conditions: Compound (2) with doxorubicin; plating density 5000; BRCA mutant
Experimental: as §3

[12] = system: HCC-1599; test: as above; format: cell-based; conditions: Compound (2) with doxorubicin; plating density unknown; BRCA mutant
Experimental: as §3

Q: With `CNC(=O)c1ccnc2c([C@H](C)CNc3cc(-c4cnc(C)nc4)ncn3)cccc12` [Compound (1), (S)-N-methyl-8-(1-((2′-methyl-[4,5′-bipyrimidin]-6-yl)amino)propan-2-yl)quinoline-4-carboxamide] as the compound, how does the “dose enhancement factor (DEF)” value [1] read?
A: The value was 2.5.

Q: What about the colony formation ([2]; Compound (1) and radiation, as little as 0.5 Gy) of the same compound?
A: The colony formation was “completely eliminated colony formation”.

Q: What about the “dose enhancement factor (DEF)” value ([2]; with radiation, surviving fraction 0.1) of the same compound?
A: The value was greater than 8.

Q: And the “Max. body wt loss (%)” value ([3]; PO 25 mg/kg bid (0, 4 h), 2 Gy IR ([…]) q7dx2, Day 8)?
A: The value was −7.70%.

Q: What about the “Max. body wt loss (%)” value ([3]; PO 50 mg/kg bid (0, 4 h), 2 Gy IR ([…]) q7dx2, Day 8) of the same compound?
A: Its value is −5.50%.

Q: And the “Max. body wt loss (%)” value ([3]; PO 100 mg/kg bid (0, 4 h), 2 Gy IR ([…]) q7dx2, Day 8)?
A: The value was −3.70%.

Q: What about the “Max. body wt loss (%)” value ([3]; PO 100 mg/kg tid (0, 3, 7 h) q7dx2, no IR) of the same compound?
A: Its value is “weight gain”.

Q: And the “Max. body wt loss (%)” value ([3]; PO 100 mg/kg tid (0, 3, 7 h) qdx1, 2 Gy qdx1 (3.25 h), Day 2)?
A: Its value is −9.70%.

Q: And the “Max. body wt loss (%)” value ([3]; PO 100 mg/kg tid (0, 3, 7 h) qdx1, no IR, Day 2)?
A: The value was −2.40%.

Q: What about the “Max. body wt loss (%)” value ([3]; PO 200 mg/kg qd, 2 Gy IR ([…]) q7dx2, Day 1) of the same compound?
A: The value was −6.10%.

Q: What about the tumor growth ([4]; Compound (1) in combination with 2 Gy whole body IR) of the same compound?
A: The tumor growth was “significantly inhibited tumor growth”.

Q: And the “% T/C (Day 18)” value ([4]; PO 100 mg/kg bid (0, 4 h) qd7x2, 2 Gy IR qd7x2 ([…]) whole body)?
A: The value was 24.0%.

Q: What about the “% T/C (Day 18)” value ([4]; PO 100 mg/kg bid (0, 4 h) qd7x 2, no IR) of the same compound?
A: Its value is 79.0%.

Q: With `[2H]c1nc(C)nc([2H])c1-c1cc(NC[C@@H](C)c2cccc3c(C(=O)NC)ccnc23)ncn1` [Compound (2), (S)-N-methyl-8-(1-((2′-methyl-4′,6′-dideutero-[4,5′-bipyrimidin]-6-yl)amino)propan-2-yl)quinoline-4-carboxamide] as the compound, how does the “shift in IC50 of the combination compared to doxorubicin alone” value [5] read?
A: The value was greater than 3 fold.

Q: What about the “Average Bliss score” value [6] of the same compound?
A: Its value is 27.3 (n = 1).

Q: And the “Average Bliss score” value [7]?
A: Its value is 43.2 ± 6.5 (n = 3).

Q: What about the “Max. body wt loss (%)” value [8] of the same compound?
A: The value was −6.73%.

Q: What about the “Average Bliss score” value ([9]; plating density 5000) of the same compound?
A: The value was 16.6.

Q: And the “Average Bliss score” value ([9]; plating density 20000)?
A: The value was 15.6.

Q: And the “Average Bliss score” value ([10]; plating density 5000)?
A: Its value is 23.1.

Q: What about the “Average Bliss score” value ([10]; plating density 20000) of the same compound?
A: Its value is 24.7.

Q: What about the “Average Bliss score” value [11] of the same compound?
A: The value was 11.1.

Q: What about the “Average Bliss score” value [12] of the same compound?
A: Its value is 14.3.
